A word on the melting point: it is the temperature, or range, at which the solid turns liquid.

Molecules are shown by their SMILES.

Turning to `Cc1cnc(C(=O)Nc2nc(-c3ccco3)c(C(=O)c3ccccn3)s2)cn1` [Compound 230, N-[4-(2-Furyl)-5-(pyridine-2-ylcarbonyl)thiazol-2-yl]-5-methylpyrazine-2-carboxamide], the melting point fell in the range of 208 to 209 °C.

As for `O=C(Nc1nc(-c2ccco2)c(C(=O)c2ccccn2)s1)c1cc[nH]c(=O)c1` [Compound 231, N-[4-(2-Furyl)-5-(pyridin-2-ylcarbonyl)thiazol-2-yl]-2-oxo-1,2-dihydropyridine-4-carboxamide], the melting point was 170 to 180 °C (dec.).

For `O=C(Nc1nc(-c2ccco2)c(C(=O)c2ccccn2)s1)c1ccn(Cc2ccccc2)c(=O)c1` [Compound 232, 1-Benzyl-N-[4-(2-furyl)-5-(pyridin-2-ylcarbonyl)thiazol-2-yl]-2-oxo-1,2-dihydropyridine-4-carboxamide], the melting point is 269 to 270 °C.

Regarding `Cn1ccc(C(=O)Nc2nc(-c3ccco3)c(C(=O)c3ccccn3)s2)cc1=O` [Compound 233, N-[4-(2-Furyl)-5-(pyridin-2-ylcarbonyl)thiazol-2-yl]-1-methyl-2-oxo-1,2-dihydropyridine-4-carboxamide], the melting point lay within 280 to 285 °C.

Consider `O=C(Nc1nc(-c2ccco2)c(C(=O)c2ccccn2)s1)c1ccc(Br)o1` [Compound 235, 5-Bromo-N-[4-(2-furyl)-5-(pyridin-2-ylcarbonyl)thiazol-2-yl]furan-2-carboxamide], for which the melting point fell in the range of 211 to 212 °C.

Regarding `O=C(Nc1nc(-c2ccco2)c(C(=O)c2ccccn2)s1)c1ccc([N+](=O)[O-])o1` [Compound 236, N-[4-(2-Furyl)-5-(pyridin-2-ylcarbonyl)thiazol-2-yl]-5-nitrofuran-2-carboxamide], the melting point was 278 to 283 °C (dec.).

`Cc1ccoc1C(=O)Nc1nc(-c2ccco2)c(C(=O)c2ccccn2)s1` [Compound 237, N-[4-(2-Furyl)-5-(pyridin-2-ylcarbonyl)thiazol-2-yl]-3-methylfuran-2-carboxamide] gave a melting point of 174 to 176 °C.

`O=C(Nc1nc(-c2ccco2)c(C(=O)c2ccccn2)s1)c1ccoc1` [Compound 238, N-[4-(2-Furyl)-5-(pyridin-2-ylcarbonyl)thiazol-2-yl]furan-3-carboxamide] had a melting point of 187 to 189 °C.

`Cc1occc1C(=O)Nc1nc(-c2ccco2)c(C(=O)c2ccccn2)s1` [Compound 239, N-[4-(2-Furyl)-5-(pyridin-2-ylcarbonyl)thiazol-2-yl]-2-methylfuran-3-carboxamide] yielded a melting point of 183 to 186 °C.

Consider `Cc1cc(C(=O)Nc2nc(-c3ccco3)c(C(=O)c3ccccn3)s2)c(C)o1` [Compound 240, N-[4-(2-Furyl)-5-(pyridin-2-ylcarbonyl)thiazol-2-yl]-2,5-dimethylfuran-3-carboxamide], for which the melting point lay in the range of 195 to 198 °C.

Consider `O=C(Nc1nc(-c2ccco2)c(C(=O)c2ccccn2)s1)c1cccs1` [Compound 241, N-[4-(2-Furyl)-5-(pyridin-2-ylcarbonyl)thiazol-2-yl]thiophene-2-carboxamide], for which the melting point was 197 to 199 °C.

The compound `O=C(Nc1nc(-c2ccco2)c(C(=O)c2ccccn2)s1)c1ccno1` [Compound 242, N-[4-(2-Furyl)-5-(pyridin-2-ylcarbonyl)thiazol-2-yl]isoxazole-5-carboxamide] registered a melting point of 223 to 230 °C.

In the case of `Cc1cc(C(=O)Nc2nc(-c3ccco3)c(C(=O)c3ccccn3)s2)no1` [Compound 243, N-[4-(2-Furyl)-5-(pyridin-2-ylcarbonyl)thiazol-2-yl]-5-methylisoxazole-3-carboxamide], the melting point fell in the range of 209 to 213 °C.

As for `O=C(Nc1nc(-c2ccco2)c(C(=O)c2ccccn2)s1)c1ccc2snnc2c1` [Compound 244, N-[4-(2-Furyl)-5-(pyridin-2-ylcarbonyl)thiazol-2-yl]-1,2,3-benzothiadiazole-5-carboxamide], the melting point lay within 213 to 218 °C.

On to `Cn1nnc2ccc(C(=O)Nc3nc(-c4ccco4)c(C(=O)c4ccccn4)s3)cc21` [Compound 245, N-[4-(2-Furyl)-5-(pyridin-2-ylcarbonyl)thiazol-2-yl]-1-methyl-1H-benzotriazole-6-carboxamide], for which the melting point was 230 to 231 °C.

Compound `CC(O)c1cc2cc(C(=O)Nc3nc(-c4ccco4)c(C(=O)c4ccccn4)s3)ccc2o1` (stereo not shown) [Compound 246, N-[4-(2-Furyl)-5-(pyridin-2-ylcarbonyl)thiazol-2-yl]-2-(1-hydroxyethyl)-1-benzofuran-5-carboxamide] gave a melting point of 246 to 249 °C.

In turn, `CC(C)(O)c1cc2cc(C(=O)Nc3nc(-c4ccco4)c(C(=O)c4ccccn4)s3)ccc2o1` [Compound 247, N-[4-(2-Furyl)-5-(pyridin-2-ylcarbonyl)thiazol-2-yl]-2-(1-hydroxy-1-methylethyl)-1-benzofuran-5-carboxamide] gave a melting point of 230 to 231 °C.

Compound `O=C(Nc1nc(-c2ccco2)c(C(=O)c2ccccn2)s1)c1cnc2occc2c1` [Compound 248, N-[4-(2-Furyl)-5-(pyridin-2-ylcarbonyl)thiazol-2-yl]furo[2,3-b]pyridine-5-carboxamide] had a melting point of 234 to 235 °C.

As to `CCOC(=O)Nc1nc(-c2ccco2)c(C(=O)c2ccccn2)s1` [Compound 250, Ethyl N-[4-(2-furyl)-5-(pyridin-2-ylcarbonyl)thiazol-2-yl]carbamate], the melting point fell in the range of 158 to 159 °C.

Consider `O=C(Nc1nc(-c2ccco2)c(C(=O)c2ccccn2)s1)OC1CCC1` [Compound 251, Cyclobutyl N-[4-(2-furyl)-5-(pyridin-2-ylcarbonyl)thiazol-2-yl]carbamate], for which the melting point was in the range of 152 to 153 °C.

`O=C(Nc1nc(-c2ccco2)c(C(=O)c2ccccn2)s1)OC1CCCC1` [Compound 252, Cyclopentyl N-[4-(2-furyl)-5-(pyridin-2-ylcarbonyl)thiazol-2-yl]carbamate] had a melting point of 162 to 163 °C.

Take `O=C(Nc1nc(-c2ccco2)c(C(=O)c2ccccn2)s1)OC1CCOCC1` [Compound 253, 4-Tetrahydropyranyl N-[4-(2-furyl)-5-(pyridin-2-ylcarbonyl)thiazol-2-yl]carbamate]: the melting point was in the range of 144 to 145 °C.

Compound `CN1CCC(OC(=O)Nc2nc(-c3ccco3)c(C(=O)c3ccccn3)s2)CC1` [Compound 254, 1-Methylpiperidin-4-yl N-[4-(2-furyl)-5-(pyridin-2-ylcarbonyl)thiazol-2-yl]carbamate] had a melting point of 222 to 225 °C.

The compound `O=C(Nc1nc(-c2ccco2)c(C(=O)c2ccccn2)s1)OC(CF)CF` [Compound 255, 2-Fluoro-1-(fluoromethyl)ethyl N-[4-(2-furyl)-5-(pyridin-2-ylcarbonyl)thiazol-2-yl]carbamate] displayed a melting point of 158 to 159 °C.

In the case of `O=C(c1ccccn1)c1sc(NC(=O)N2CCOCC2)nc1-c1ccco1` [Compound 256, N-[4-(2-Furyl)-5-(pyridin-2-ylcarbonyl)thiazol-2-yl]morpholine-4-carboxamide], the melting point lay within 144 to 145 °C.

Take `O=C(c1ccccn1)c1sc(NC(=O)N2CCCCC2)nc1-c1ccco1` [Compound 257, N-[4-(2-Furyl)-5-(pyridin-2-ylcarbonyl)thiazol-2-yl]piperidine-1-carboxamide]: the melting point was 182 to 185 °C.

`CC(C)NC(=O)Nc1nc(-c2ccco2)c(C(=O)c2ccccn2)s1` [Compound 258, N-[4-(2-Furyl)-5-(pyridin-2-ylcarbonyl)thiazol-2-yl]-N′-isopropylurea] had a melting point of 182 to 186 °C.

Compound `COCCNC(=O)Nc1nc(-c2ccco2)c(C(=O)c2ccccn2)s1` [Compound 260, N-[4-(2-Furyl)-5-(pyridin-2-ylcarbonyl)thiazol-2-yl]-N′-(2-methoxyethyl)urea] returned a melting point of 150 to 151 °C.

As to `COCCCNC(=O)Nc1nc(-c2ccco2)c(C(=O)c2ccccn2)s1` [Compound 261, N-[4-(2-Furyl)-5-(pyridin-2-ylcarbonyl)thiazol-2-yl]-N′-(3-methoxypropyl)urea], the melting point was 169 to 170 °C.

`O=C(CCl)Nc1nc(-c2ccco2)c(C(=O)c2ccccn2)s1` [Compound 262, 2-Chloro-N-[4-(2-furyl)-5-(pyridin-2-ylcarbonyl)thiazol-2-yl]acetamide] gave a melting point of 184 to 185 °C.

Consider `O=C(CN1CCOCC1)Nc1nc(-c2ccco2)c(C(=O)c2ccccn2)s1` [Compound 264, N-[4-(2-Furyl)-5-(pyridin-2-ylcarbonyl)thiazol-2-yl]morpholinoacetamide], for which the melting point fell in the range of 170 to 171 °C.

The compound `C[C@@H]1CN(CC(=O)Nc2nc(-c3ccco3)c(C(=O)c3ccccn3)s2)C[C@H](C)O1` [Compound 265, 2-(cis-2,6-Dimethylmorpholino)-N-[4-(2-furyl)-5-(pyridin-2-ylcarbonyl)thiazol-2-yl]acetamide] yielded a melting point of 188 to 191 °C.

On to `CC1CCN(CC(=O)Nc2nc(-c3ccco3)c(C(=O)c3ccccn3)s2)CC1` [Compound 266, N-[4-(2-Furyl)-5-(pyridin-2-ylcarbonyl)thiazol-2-yl]-2-(4-methylpiperidino)acetamide], for which the melting point was in the range of 104 to 106 °C.

For `O=C(CN1CCC2(CC1)OCCO2)Nc1nc(-c2ccco2)c(C(=O)c2ccccn2)s1` [Compound 269, 2-(1,4-Dioxa-8-azaspiro[4.5]decan-8-yl)-N-[4-(2-furyl)-5-(pyridin-2-ylcarbonyl)thiazol-2-yl]acetamide], the melting point lay in the range of 188 to 204 °C.

On to `O=C(CN1CCC(N2CCCCC2)CC1)Nc1nc(-c2ccco2)c(C(=O)c2ccccn2)s1` [Compound 270, N-[4-(2-Furyl)-5-(pyridin-2-ylcarbonyl)thiazol-2-yl]-2-(4-piperidinopiperidino)acetamide], for which the melting point is 214 to 220 °C (dec.).

In turn, `O=C(CN1CCC(N2CCOCC2)CC1)Nc1nc(-c2ccco2)c(C(=O)c2ccccn2)s1` [Compound 271, N-[4-(2-Furyl)-5-(pyridin-2-ylcarbonyl)thiazol-2-yl]-2-(4-morpholinopiperidino)acetamide] showed a melting point of 149 to 150 °C.

`CN1CCN(CC(=O)Nc2nc(-c3ccco3)c(C(=O)c3ccccn3)s2)CC1` [Compound 272, N-[4-(2-Furyl)-5-(pyridin-2-ylcarbonyl)thiazol-2-yl]-2-(4-methylpiperazin-1-yl)acetamide] showed a melting point of 136 to 145 °C.

The values above are taken from US7718808B2, “Thiazole derivatives” (Kyowa Hakko Kirin Co., Ltd., priority 2003, dated 2010).
